In patent publication US20060134221A1, “Methods for producing block copolymer/amphiphilic particles” (priority 2004, published 2006):

What was measured:
[1] = Particle size measurements using photon correlation spectroscopy (mean Z average diameter, polydispersity); type: physicochemical; details: for interaction with poloxamer: individual benzalkonium chloride analogs, thermal cycling (Example 1)
Description: The following examples employ a Malvern 3000 HS Zetasizer to measure particle size. Particles with diameters that range from 1 to 5000 nm, can be measured using the method of photon correlation spectroscopy (PCS). Particles in this size range are in constant random thermal (or Brownian) motion. This motion causes the intensity of light scattered from the particles to form a moving speckle pattern which, with the use of optics and a photomultiplier, can be detected as a change in intensity with time. Large particles move more slowly than small particles, therefore the rate of fluctuation of light scattered from large particles is slower. PCS uses the rate of change of these light fluctuations to determine the size distribution of the particles scattering light. Data is plotted as the auto-correlation function (counts per correlator against delay time). Analysis of this function obtained over time, with a sufficient number of data points, enables the translational diffusion coefficient of the particles undergoing Brownian motion to be calculated. From this coefficient, together with the temperature and viscosity of the suspending liquid, the particle size can be calculated. For aqueous dispersions, the default set-up of the Malvern 3000 HS Zetasizer calculates the viscosity from the temperature. The best single measurement to describe the size of a poloxamer formulation is the mean Z average or the hydrodynamic diameter, which is calculated using cumulants analysis. The polydispersity describes the width of the distribution.
The size of the particles produced was determined using photon correlation spectroscopy. The particle size as reported herein refers to the mean Z average diameter also known as the hydrodynamic diameter. The surface charge of the particles was also determined using micro-electrophoresis.

[2] = Dissolution characteristics of BAK homologs in PBS; type: physicochemical
Description: Stock solutions of benzyldimethyldodecylammonium chloride (BAK C12, Fluka Chemical Corp., Milwaukee, Wis., cat #53233), benzyldimethyltetradecylammonium chloride (BAK C14, TCI America, Portland, Oreg., cat #A0208), benzyldimethylhexadecyllammonium chloride (BAK C16, TCI America, Portland, Oreg., cat #B0237) and benzyldimethyloctadecylammonium chloride (BAK C18, TCI America, Portland, Oreg., cat #B1297) were made in PBS.

[3] = Example 9, 269 mg in 70 ml sterile water for injection, homogenized/extruded 10,000 psi, 15° C., 5 passes

## CCCCCCCCCCCCCC[N+](C)(C)Cc1ccccc1.[Cl-] [BAK C14, benzyldimethyltetradecylammonium chloride]
[1]
  interaction with poloxamer: interact with poloxamer to produce submicron particles with a positive surface charge
[2]; Concentration in PBS 5 mM
  Dissolution Temperature: 25 °C

## CCCCCCCCCCCCCCCCCC[N+](C)(C)Cc1ccccc1.[Cl-] [BAK C18, benzyldimethyloctadecylammonium chloride]
[1]; Example 13, thermal cycling method
  formation of small, uniform cell delivery particles with CRL-1005: does not form small nor uniform cell delivery particles
[1]
  interaction with poloxamer: does interact with poloxamer to produce large micron sized particles with a positive surface charge
[1]; thermal cycling method
  formation of cell delivery particles with CRL-1005 and DNA: do not form cell delivery particles
[2]; Concentration in PBS 1 mM
  Dissolution Temperature: 45 °C
[2]; Concentration in PBS 2 mM
  Dissolution Temperature: 45 °C
[2]; Concentration in PBS 5 mM
  Dissolution Temperature: 45 °C

## CCCCCCCCCCCCCCCC[N+](C)(C)Cc1ccccc1.[Cl-] [BAK C16, benzyldimethylhexadecyllammonium chloride]
[1]
  interaction with poloxamer: interact with poloxamer to produce submicron particles with a positive surface charge
[2]; Concentration in PBS 2 mM
  Dissolution Temperature: 45 °C
[2]; Concentration in PBS 5 mM
  Dissolution Temperature: 45 °C

## CCCCCCCCCCCCCCOCC(C[N+](C)(C)CCO)OCCCCCCCCCCCCCC.[Br-] (racemic) [DMRIE, (±)-N-(2-hydroxyethyl)-N,N-dimethyl-2,3-bis(tetradecyloxy)-1-propanaminium bromide]
[1]; [3]
  Particle size: 65 nm
  polydispersity: 0.21

## CCCCCCCCCCCC[N+](C)(C)Cc1ccccc1.[Cl-] [BAK C12, benzyldimethyldodecylammonium chloride]
[1]
  interaction with poloxamer: does not interact with poloxamer
[1]; thermal cycling method
  formation of cell delivery particles with CRL-1005 and DNA: do not form cell delivery particles
